Numbering of substitutions follows the chain as printed. “Also recorded” adds a separate entry of the source.
Experiments:
[1] = target: T1, UGT1A7 (Homo sapiens, UniProt Q9HAW7); assay: SAHA glucuronidation, wild-type UGT1A7; type: in vitro ADME
T1 sequence (Q9HAW7 26-530): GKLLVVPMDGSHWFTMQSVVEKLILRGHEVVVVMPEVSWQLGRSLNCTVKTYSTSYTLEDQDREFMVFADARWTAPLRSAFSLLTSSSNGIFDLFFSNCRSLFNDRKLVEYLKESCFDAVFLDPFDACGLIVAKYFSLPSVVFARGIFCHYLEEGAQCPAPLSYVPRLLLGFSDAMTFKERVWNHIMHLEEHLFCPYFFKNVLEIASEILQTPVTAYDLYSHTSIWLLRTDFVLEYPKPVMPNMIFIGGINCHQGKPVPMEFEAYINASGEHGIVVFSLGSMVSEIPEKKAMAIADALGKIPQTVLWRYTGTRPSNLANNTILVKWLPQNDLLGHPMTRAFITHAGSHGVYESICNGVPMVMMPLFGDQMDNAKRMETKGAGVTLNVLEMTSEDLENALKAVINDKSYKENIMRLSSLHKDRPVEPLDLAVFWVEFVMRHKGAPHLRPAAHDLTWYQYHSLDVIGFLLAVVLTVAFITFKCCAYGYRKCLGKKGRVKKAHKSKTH

[2] = target: T2, UGT1A7*2 [UGT1A7p.(Asn129Lys)+(Arg131Lys)] (Homo sapiens, UniProt Q9HAW7, N129K/R131K); assay: SAHA glucuronidation, UGT1A7*2 variant cell homogenate; type: in vitro ADME
T2 sequence (Q9HAW7 26-530 N129K/R131K): T1 sequence (Q9HAW7 26-530) with N104K, R106K

[3] = target: T3, UGT1A8*3 (UGT1A8p.Cys277Tyr) (Homo sapiens, UniProt Q9HAW9, C277Y); assay: Glucuronidation, UGT1A8*3 variant cell homogenate; type: in vitro ADME; conditions: using up to 8 mmol/L SAHA
T3 sequence (Q9HAW9 26-530 C277Y): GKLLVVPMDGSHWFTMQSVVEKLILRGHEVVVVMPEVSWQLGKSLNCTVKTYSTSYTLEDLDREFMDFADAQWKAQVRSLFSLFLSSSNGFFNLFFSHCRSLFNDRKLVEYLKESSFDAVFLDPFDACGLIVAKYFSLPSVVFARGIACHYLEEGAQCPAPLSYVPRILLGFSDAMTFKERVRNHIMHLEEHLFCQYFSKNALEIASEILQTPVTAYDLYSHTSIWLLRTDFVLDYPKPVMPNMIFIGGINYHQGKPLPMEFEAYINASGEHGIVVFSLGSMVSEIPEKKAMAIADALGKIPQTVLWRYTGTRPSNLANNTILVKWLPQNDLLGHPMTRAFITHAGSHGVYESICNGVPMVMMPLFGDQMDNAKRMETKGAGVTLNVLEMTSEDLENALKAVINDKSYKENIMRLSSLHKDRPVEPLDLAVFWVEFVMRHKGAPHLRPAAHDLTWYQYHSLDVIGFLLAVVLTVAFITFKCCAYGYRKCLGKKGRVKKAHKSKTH

[4] = target: T4, UGT1A6 (Homo sapiens, UniProt P19224); assay: SAHA glucuronidation screen, UGT1A6-overexpressing cell homogenate; type: in vitro ADME
T4 sequence (P19224 27-532): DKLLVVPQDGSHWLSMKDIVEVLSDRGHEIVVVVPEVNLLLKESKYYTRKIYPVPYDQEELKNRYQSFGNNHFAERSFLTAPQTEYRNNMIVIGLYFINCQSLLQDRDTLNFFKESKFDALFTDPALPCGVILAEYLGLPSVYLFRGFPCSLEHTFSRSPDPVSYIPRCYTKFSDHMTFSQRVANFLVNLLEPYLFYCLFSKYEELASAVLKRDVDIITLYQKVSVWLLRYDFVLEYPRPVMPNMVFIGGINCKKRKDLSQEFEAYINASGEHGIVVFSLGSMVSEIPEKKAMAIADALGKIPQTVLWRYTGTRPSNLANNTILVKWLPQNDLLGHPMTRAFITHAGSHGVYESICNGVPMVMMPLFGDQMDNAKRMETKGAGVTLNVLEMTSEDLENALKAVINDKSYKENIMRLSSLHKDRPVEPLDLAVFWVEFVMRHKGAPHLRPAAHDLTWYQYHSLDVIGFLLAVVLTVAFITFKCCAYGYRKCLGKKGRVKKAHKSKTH

[5] = SAHA glucuronidation in human colon homogenate; type: in vitro ADME; conditions: 200 μg protein
[6] = in vitro; conditions: human, pH 7.5
[7] = 400 μg UGT-overexpressing cell homogenate, 1-h incubation

## O=C(CCCCCCC(=O)Nc1ccccc1)NO [SAHA, Suberoylanilide hydroxamic acid]
[1]; [7]
  glucuronidation against SAHA (screen): high levels of glucuronidation
[1]; human, pH 7.5
  Km at 1 h: 2700 ± 600 µM
[2]; UGT1A7 variants
  difference in glucuronidation activity against SAHA versus wild-type UGT1A7: No significant difference
[2]; human, pH 7.5
  Km at 1 h: 2500 ± 300 µM
[3]
  glucuronidation activity against SAHA: no detectable glucuronidation activity; also recorded: inactive
[4]; [7]
  glucuronidation against SAHA: detectable levels of glucuronidation
[4]; human, UGT1A6-overexpressing cell homogenate, pH 7.5
  Km at 1 h: > 8000 µM
[5]
  glucuronidation activity against SAHA: significant levels of glucuronidation activity
200 μmol/L SAHA
  SAHA-glucuronide formation, HLM with one versus two intact UGT2B17 alleles: No difference
200 μmol/L SAHA, 20 μg HLM protein, 100 subjects
  decrease in SAHA-glucuronide formation, UGT2B17 (*2/*2) HLM versus HLM with intact UGT2B17: 45%
13 HLM per genotype, 65 to 8,000 μmol/L SAHA
  increase in KM, UGT2B17 (*2/*2) HLM versus UGT2B17 (*1/*1) HLM: 75%
HLM (*1/*1) versus (*2/*2)
  change in Vmax between UGT2B17 genotype subgroups: No change
From UGT2B17-deleted versus wild-type HLM
  share of hepatic SAHA glucuronidation from UGT2B17: ~ 45%
[6]; human liver microsomes from UGT2B17 (*1/*1) subjects
  Km: 1200 µM
[6]; human liver microsomes from UGT2B17 (*2/*2) subjects
  Km: 2100 µM

Source: article PMC2694132 (Cancer research, 2009)
